Test results: patent US20240083900A1, “PYRAZOLO[1,5-A]PYRAZINE DERIVATIVES AS BTK INHIBITORS” (BIOGEN MA INC., priority 2020, published 2024)
Read-outs that look alike come from different tables or passages of the source.

What was measured:
BTK = BTK (Homo sapiens (Human), UniProt Q06187); assay: In Vitro BTK Kinase Assay: Btk-PolyGAT-LS Assay; type: biochemical; settings: BTK enzyme 0.25 nM, ATP 10 μM, polyGAT 100 nM, 30 minutes incubation, TRF readout
How it was run: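 Human BTK activity was measured with final 10 μM ATP and 100 nM polyGAT substrate in pH 7.5 Tris buffer with 10 mM MgCl2, DTT, Triton X-100 and casein.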

[1] = test system: CD69 expression on CD19+ B cells in human whole blood stimulated with anti-human IgD; assay: In Vitro whole blood CD69 Assay; type: cell-based; settings: human heparinized whole blood, anti-human IgD stimulation overnight, percentage of CD19+ B cells expressing CD69, flow cytometry
[2] = Homo sapiens, B-cell, read-out: IC50

Chain of BTK (Q06187 whole entry): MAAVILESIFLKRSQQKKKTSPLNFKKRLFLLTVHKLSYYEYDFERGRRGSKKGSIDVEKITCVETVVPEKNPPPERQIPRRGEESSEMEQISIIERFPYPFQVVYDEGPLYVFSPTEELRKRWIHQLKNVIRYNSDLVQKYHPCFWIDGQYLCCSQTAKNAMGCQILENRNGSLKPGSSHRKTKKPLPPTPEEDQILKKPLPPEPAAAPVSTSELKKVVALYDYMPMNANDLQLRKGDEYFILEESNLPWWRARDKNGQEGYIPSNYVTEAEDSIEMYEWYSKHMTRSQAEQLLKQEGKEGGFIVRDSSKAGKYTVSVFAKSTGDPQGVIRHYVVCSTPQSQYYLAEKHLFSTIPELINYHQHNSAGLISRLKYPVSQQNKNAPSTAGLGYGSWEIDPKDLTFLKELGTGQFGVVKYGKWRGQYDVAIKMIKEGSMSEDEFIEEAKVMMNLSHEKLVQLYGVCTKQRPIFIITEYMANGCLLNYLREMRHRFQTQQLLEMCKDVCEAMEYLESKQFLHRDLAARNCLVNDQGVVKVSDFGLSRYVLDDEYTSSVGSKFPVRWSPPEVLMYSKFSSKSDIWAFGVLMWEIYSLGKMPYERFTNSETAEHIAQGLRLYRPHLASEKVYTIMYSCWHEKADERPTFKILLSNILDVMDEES

SMILES	IC50 (BTK; read-out: IC50) [nM]	IC50 [1, 2] [nM]	further results
C=CC(=O)N1CCC[C@H](COc2nc(-c3cnn(C)c3)cn3nccc23)C1 [Example 14, (S)-1-(3-(((6-(1-methyl-1H-pyrazol-4-yl)pyrazolo[1,5-a]pyrazin-4-yl)oxy)methyl)piperidin-1-yl)prop-2-en-1-one]	1 to 10	> 10000	–
C=CC(=O)N1CCC[C@@H](Oc2nc(-c3cnn(C)c3)cc3nccn23)CC1 (single isomer, unassigned) [Example 34, (S) or (R)-1-(4-((7-(1-methyl-1H-pyrazol-4-yl)imidazo[1,2-c]pyrimidin-5-yl)oxy)azepan-1-yl)prop-2-en-1-one]	1 to 10	< 1000	–
C=CC(=O)N(C)[C@H]1C[C@](Oc2nc(-c3cnn(C)c3)cn3nccc23)(C2CC2)C1 [Example 103, N-((1s,3s)-3-cyclopropyl-3-((6-(1-methyl-1H-pyrazol-4-yl)pyrazolo[1,5-a]pyrazin-4-yl)oxy)cyclobutyl)-N-methylacrylamide]	1 to 10	–	IC50 ([1]; read-out: IC50): 1000 to 10000 nM
C=CC(=O)N1CC2CC(C1)C2COc1nc(-c2cnn(C)c2)cn2nccc12 (stereo not drawn) [Example 126, 1-(6-(((6-(1-methyl-1H-pyrazol-4-yl)pyrazolo[1,5-a]pyrazin-4-yl)oxy)methyl)-3-azabicyclo[3.1.1]heptan-3-yl)prop-2-en-1-one]	< 1	< 1000	–
C=CC(=O)N1CC[C@]2(C1)C[C@@](C)(Oc1nc(-c3cnn(C)c3)cn3nccc13)C2 [Example 213, rac-1-((2r,4s)-2-methyl-2-((6-(1-methyl-1H-pyrazol-4-yl)pyrazolo[1,5-a]pyrazin-4-yl)oxy)-6-azaspiro[3.4]octan-6-yl)prop-2-en-1-one]	1 to 10	–	IC50 ([1]; read-out: IC50): 1000 to 10000 nM
C=CS(=O)(=O)N1CCC(Oc2nc(-c3cnn(C)c3)cn3nccc23)CC1 [Example 3, 6-(1-methyl-1H-pyrazol-4-yl)-4-((1-(vinylsulfonyl)piperidin-4-yl)oxy)pyrazolo[1,5-a]pyrazine]	< 1	> 10000	–
CC#CC(=O)N(CC(F)F)[C@H]1C[C@@](C)(Oc2nc(-c3cnn(C)c3)cn3nccc23)C1 [Example 233, N-(2,2-difluoroethyl)-N-((1s,3s)-3-methyl-3-((6-(1-methyl-1H-pyrazol-4-yl)pyrazolo[1,5-a]pyrazin-4-yl)oxy)cyclobutyl)but-2-ynamide]	< 1	< 1000	–
C=CC(=O)N1CCOC[C@@H](Oc2nc(-c3cnn(C)c3)cn3nccc23)C1 [Example 54, (S)-1-(6-((6-(1-methyl-1H-pyrazol-4-yl)pyrazolo[1,5-a]pyrazin-4-yl)oxy)-1,4-oxazepan-4-yl)prop-2-en-1-one]	1 to 10	> 10000	–
C=CC(=O)N1CCC[C@H](Oc2nc(-c3ccc(=O)n(C)c3)cn3nccc23)CC1 (single isomer, unassigned) [Example 71 E1]	1 to 10	< 1000	–
C#CC(=O)NCC1CCCN(c2nc(-c3cnn(C)c3)cn3nccc23)C1 (stereo not drawn) [Example 25, N-((1-(6-(1-methyl-1H-pyrazol-4-yl)pyrazolo[1,5-a]pyrazin-4-yl)piperidin-3-yl)methyl)propiolamide]	1 to 10	> 10000	–
C=CS(=O)(=O)N1CCC[C@H](Oc2nc(-c3cnn(C)c3)cn3nccc23)C1 [Example 6, (S)-6-(1-methyl-1H-pyrazol-4-yl)-4-((1-(vinylsulfonyl)piperidin-3-yl)oxy)pyrazolo[1,5-a]pyrazine]	10 to 1000	> 10000	–
C#CC(=O)NC1CCCN(c2nc(-c3cnn(C)c3)cn3nccc23)C1 (stereo not drawn) [Example 21, N-[1-[6-(1-methylpyrazol-4-yl)pyrazolo[1,5-a]pyrazin-4-yl]-3-piperidyl]prop-2-ynamide]	1 to 10	1000 to 10000	–
C=CC(=O)N1CCO[C@@](C)(COc2nc(-c3cnn(C)c3)cn3nccc23)C1 (single isomer, unassigned) [Example 118, (R) or (S)-1-(2-methyl-2-(((6-(1-methyl-1H-pyrazol-4-yl)pyrazolo[1,5-a]pyrazin-4-yl)oxy)methyl)morpholino)prop-2-en-1-one]	< 1	< 1000	–
C=CC(=O)N(C)[C@@H]1C[C@@H](Oc2nc(-c3cnn(C)c3)cn3nccc23)C1(C)C [Example 220, N-((1R,3R)-2,2-dimethyl-3-((6-(1-methyl-1H-pyrazol-4-yl)pyrazolo[1,5-a]pyrazin-4-yl)oxy)cyclobutyl)-N-methylacrylamide]	1 to 10	1000 to 10000	–
C=CC(=O)N(C)[C@H]1C[C@@](C)(Oc2nc(-c3cnn(C)c3)cn3nccc23)C1(C)C (single isomer, unassigned) [Example 140]	< 1	–	IC50 ([1]; Homo sapiens, B-cell): < 1000 nM
C=CC(=O)N(C1CC1)[C@H]1C[C@@H](Oc2nc(-c3cnn(C)c3)cn3nccc23)C1 [Example 101, N-cyclopropyl-N-((cis)-3-((6-(1-methyl-1H-pyrazol-4-yl)pyrazolo[1,5-a]pyrazin-4-yl)oxy)cyclobutyl)acrylamide]	< 1	1000 to 10000	–
C=CC(=O)N(C)[C@H]1C[C@H](Oc2nc(-c3cnn(C)c3)cn3ncc(C(F)F)c23)C1 [Example 64, N-((trans)-3-((3-(difluoromethyl)-6-(1-methyl-1H-pyrazol-4-yl)pyrazolo[1,5-a]pyrazin-4-yl)oxy)cyclobutyl)-N-methylacrylamide]	1 to 10	< 1000	–
C=CC(=O)N(C)[C@@H]1C[C@@](C)(Oc2nc(-c3cnn(C)c3)cn3nccc23)[C@@H]1C (single isomer, unassigned) [Example 107]	1 to 10	< 1000	–
C/C=C\S(=O)(=O)N1CC(Oc2nc(-c3cnn(C)c3)cn3nccc23)C1 [Example 10, (Z)-6-(1-methyl-1H-pyrazol-4-yl)-4-((1-(prop-1-en-1-ylsulfonyl)azetidin-3-yl)oxy)pyrazolo[1,5-a]pyrazine]	10 to 1000	> 10000	–
C=CS(=O)(=O)N1CCC[C@H](COc2nc(-c3cnn(C)c3)cn3nccc23)C1 [Example 15, (S)-6-(1-methyl-1H-pyrazol-4-yl)-4-((1-(vinylsulfonyl)piperidin-3-yl)methoxy)pyrazolo[1,5-a]pyrazine]	1 to 10	1000 to 10000	–
C=CC(=O)N(C)[C@H]1C[C@@](C)(Oc2nc(-c3cnn(C)c3)cn3nccc23)[C@H]1C (single isomer, unassigned) [Example 110]	< 1	–	IC50 ([1]; Homo sapiens, B-cell): < 1000 nM
CC#CC(=O)N(C)[C@H]1CCC[C@@H](Oc2nc(-c3cnn(C)c3)cn3nccc23)C1 [Example 177, N-methyl-N-((1S,3R)-3-((6-(1-methyl-1H-pyrazol-4-yl)pyrazolo[1,5-a]pyrazin-4-yl)oxy)cyclohexyl)but-2-ynamide]	< 1	< 1000	–
C=CC(=O)N(C)[C@H]1C[C@@](C)(Oc2nc(-c3cnn(C)c3)cn3ncc(C4CC4)c23)C1 [Example 229, N-((1s,3s)-3-((3-cyclopropyl-6-(1-methyl-1H-pyrazol-4-yl)pyrazolo[1,5-a]pyrazin-4-yl)oxy)-3-methylcyclobutyl)-N-methylacrylamide]	< 1	< 1000	–
C=CC(=O)N1CCCC(Oc2nc(-c3ccnc(OC)c3)cn3nccc23)CC1 (single isomer, unassigned) [Example 72 E1, 1-(4-((6-(2-methoxypyridin-4-yl)pyrazolo[1,5-a]pyrazin-4-yl)oxy)azepan-1-yl)prop-2-en-1-one]	< 1	1000 to 10000	–
C=CC(=O)N(C)[C@H]1C[C@@](C)(Oc2nc(-c3cnn(C)c3)cn3nccc23)C1(C)C (single isomer, unassigned) [Example 141]	–	–	IC50 (BTK; IC50 (nM)): 1 to 10 nM; IC50 [1]: 1000 to 10000 nM
C#CC(=O)NCC1CCCCN1c1nc(-c2cnn(C)c2)cn2nccc12 (single isomer, unassigned) [Example 26 E2, N-[[1-[6-(1-methylpyrazol-4-yl)pyrazolo[1,5-a]pyrazin-4-yl]-2-piperidyl]methyl]prop-2-ynamide]	< 1	–	IC50 ([1]; listed as 26 E2, read-out: IC50): < 1000 nM
C=CC(=O)N[C@H]1C[C@@](C)(Oc2nc(-c3cnc(C)s3)cn3nccc23)C1 [Example 186, N-((1s,3s)-3-methyl-3-((6-(2-methylthiazol-5-yl)pyrazolo[1,5-a]pyrazin-4-yl)oxy)cyclobutyl)acrylamide]	< 1	< 1000	–
Cn1cc(-c2cn3nccc3c(N3CCCC(NC(=O)/C=C/CCl)C3)n2)cn1 (stereo not drawn) [Example 22, 4-chloro-N-[1-[6-(1-methylpyrazol-4-yl)pyrazolo[1,5-a]pyrazin-4-yl]-3-piperidyl]but-2-enamide]	1 to 10	1000 to 10000	–
C=CC(=O)N1CC[C@H]2[C@@H](Oc3nc(-c4cnn(C)c4)cn4nccc34)C(C)(C)[C@H]21 [Example 171, 1-((1S,5R,6R)-7,7-dimethyl-6-((6-(1-methyl-1H-pyrazol-4-yl)pyrazolo[1,5-a]pyrazin-4-yl)oxy)-2-azabicyclo[3.2.0]heptan-2-yl)prop-2-en-1-one]	10 to 1000	1000 to 10000	–
C=CC(=O)N1CCOC[C@H](Oc2nc(-c3cnn(C)c3)cn3nccc23)C1 [Example 58, (R)-1-(6-((6-(1-methyl-1H-pyrazol-4-yl)pyrazolo[1,5-a]pyrazin-4-yl)oxy)-1,4-oxazepan-4-yl)prop-2-en-1-one]	10 to 1000	> 10000	–
